# System: gene expression in etiolated eto1-4 seedlings
# Test: Transcriptional profiling (ATH1 GeneChip microarray) of etiolated eto1-4 seedlings
# Type: in vivo, Arabidopsis thaliana
# Settings: ratio eto1-4 treated to eto1-4 (no treatment)
# Protocol: For chemical treatments, seeds were sown on 0.5×MS agar medium supplemented with 10 μM chemicals (AVG, compounds 9393, 9370, and 7303) or DMSO (as control). Arabidopsis seeds were stratified in the dark at 4° C. for 4 days, then germinated in the dark for 3 days at 22° C. Approximately 2,000 etiolated seedlings of the wild type or eto1-4 were used to collect tissues for preparation of total RNA in each microarray experiment with Arabidopsis ATH1 GeneChip (Affymetrix). Extraction of RNA followed an established protocol (Chang, et al. (1993) Plant Mol. Biol. Rep. 11, 113-117). Total RNA (10 μg) was used to prepare biotinylated cRNA for hybridization to ATH1 GeneChip in the experiments disclosed herein. Experiments were repeated by 2 independent biological duplicates, and candidate genes present in both experiments were selected for further analysis. The MASS method was used for data analysis and normalization by all sample medium. Candidate genes were selected by the following criteria. First, genes with 1.5-fold differential expression between the wild type and eto1-4 were selected as the master gene pool, which was then used for comparison in treatments with AVG and individual exemplary compounds. Data were presented in hierarchical clustering and Venn diagram format. Agilent GeneSpring GX and Bioconductor software were used to analyze the expression profile data. Gene Ontology descriptions were generated by GeneSpring GX and further referred to the TAR GO database. Raw data are available in the GEO database (http://www.ncbi.nlm.nih.gov/geo) with Accession no. GSE20897.
# The filtered and normalized expression data set from 22810 probes on the ATH1 Genechip was used for hierarchical clustering of gene expression profiles for comparison between AVG and the exemplary invention compounds in eto1-4. It was identified that 1,446 genes show at least 1.5-fold difference in expression between the WT and eto1-4 and used them as the master gene pool for clustering analysis (FIG. 7A). […] These genes likely contribute to the etiolated phenotype of eto1-4 by responding to elevated endogenous ethylene. To determine whether the exemplary compounds have specific r overlapping functions with AVG to suppress the eto1-4 phenotype, genes that are regulated by individual exemplary invention compounds and AVG for Venn diagram analysis were clustered (FIG. 7B). More than 63% of genes (356/561 for compound 9393; 389/561 for compound 9370; 399/561 for compound 7303; FIG. 7B) with expression associated with AVG were co-regulated by the exemplary invention compounds, which indicates an overlap function in suppression of the ethylene phenotype in eto1-4. […] Next genes co-regulated by all of the exemplary invention compounds and AVG were examined by performing a clustering analysis using the co-regulated genes identified in FIG. 7B: 356 (compound 9393 vs AVG), 389 (compound 9370 vs AVG) and 399 genes (compound 7303 vs AVG). It was uncovered that 276 genes were co-regulated by all of the exemplary invention compounds and AVG (FIG. 7C and Table 2). On the basis of GO descriptions generated by Gene Spring GX and TAIR database, the 276 genes were divided into subgroups related to their biological functions (Table 2). […] In addition, stress- and pathogenesis-related genes were among the co-regulated genes, possibly because ethylene is involved in both biotic and abiotic stresses.
# Genes (1446 non-redundant loci) were selected by 1.5-fold differential expression between eto1-4 and WT as the master pool for analysis. These genes were used for comparison between chemical treatments by AVG and the exemplary invention compounds. The finalized 276 genes that are co-regulated by AVG and all of the exemplary invention compounds are shown. Locus ID also present in Nemhauser et al. (Nemhauser, et al. (2006) Cell 126, 467-475).
smiles,measurement,value
Cc1ccc(C2CC(=O)c3cnc(NC4CCCC4)nc3C2)cc1 (centres unmarked) [Compound 9370],"Signal Fold Change AT3G14850, unknown biological function",0.20
same,Signal Fold Change AT3G15890 protein kinase,1.86
same,Signal Fold Change AT3G16450 jacalin lectin protein,2.54
same,Signal Fold Change AT3G16470 jacalin lectin protein,5.60
same,"Signal Fold Change AT3G16690, unknown biological function",3.80
same,"Signal Fold Change AT3G17680, unknown biological function",0.24
same,Signal Fold Change AT3G20130 cytochrome P450,1.73
same,Signal Fold Change AT3G21770 peroxidase 30,2.01
same,Signal Fold Change AT3G22620 lipid transfer protein,2.14
same,"Signal Fold Change AT3G23150 ethylene receptor, putative (ETR2)",0.16
same,"Signal Fold Change AT3G23800, unknown biological function",0.40
same,"Signal Fold Change AT3G24670, unknown biological function",0.32
same,Signal Fold Change AT3G25710 bHLH protein,2.47
same,Signal Fold Change AT3G25730 AP2-containing transcription factor,0.30
same,Signal Fold Change AT3G25980 mitotic spindle checkpoint protein,2.23
same,Signal Fold Change AT3G27580 protein kinase,0.56
same,"Signal Fold Change AT3G28290, unknown biological function",0.18
same,Signal Fold Change AT3G29250 short-chain dehydrogenase,5.52
same,"Signal Fold Change AT3G30775 proline oxidase, mitochondrial",3.13
same,Signal Fold Change AT3G43270 pectinesterase protein,0.20
same,"Signal Fold Change AT3G44820, response to light stimulus, phototropic-responsive NPH3 protein",2.56
same,Signal Fold Change AT3G44990 endo-xyloglucan transferase,0.22
same,Signal Fold Change AT3G45710 proton-dependent oligopeptide transport (POT) protein,2.40
same,Signal Fold Change AT3G46130 myb transcription factor (MYB48),2.15
same,Signal Fold Change AT3G46700 UDP-glucosyl transferase,5.15
same,"Signal Fold Change AT3G47210, unknown biological function",2.73
same,"Signal Fold Change AT3G47250, unknown biological function",4.89
same,Signal Fold Change AT3G49780 phytosulfokines 3 (PSK3),7.46
same,Signal Fold Change AT3G50660 steroid 22-alpha-hydroxylase,4.00
same,"Signal Fold Change AT3G51410, unknown biological function",0.32
same,"Signal Fold Change AT3G51970, unknown biological function",2.88
same,Signal Fold Change AT3G52180 protein tyrosine phosphatase,0.25
same,Signal Fold Change AT3G52920 expressed protein (defense response),2.82
same,"Signal Fold Change AT3G53540, unknown biological function",0.35
same,"Signal Fold Change AT3G56480, unknown biological function",2.39
same,Signal Fold Change AT3G58710 WRKY transcription factor,2.65
same,"Signal Fold Change AT3G59370, unknown biological function",2.99
same,Signal Fold Change AT3G59710 short-chain dehydrogenase,0.38
same,"Signal Fold Change AT3G59900, unknown biological function",0.39
same,"Signal Fold Change AT3G60520, unknown biological function",0.28
same,Signal Fold Change AT3G61160 shaggy-related protein kinase beta/ASK-beta (ASK2),3.86
same,Signal Fold Change AT4G00730 anthocyaninless2,0.54
same,"Signal Fold Change AT4G01410, unknown biological function",0.27
same,Signal Fold Change AT4G03140 short-chain dehydrogenase,0.38
same,"Signal Fold Change AT4G08300, unknown biological function",3.20
same,Signal Fold Change AT4G09570 calcium-dependent protein kinase,0.35
same,"Signal Fold Change AT4G10910, unknown biological function",4.65
same,Signal Fold Change AT4G11190 disease resistance-responsive protein,9.98
same,Signal Fold Change AT4G11280 ACC synthase 6,2.29
same,Signal Fold Change AT4G11310 cysteine proteinase,9.04
same,"Signal Fold Change AT4G12080, unknown biological function",2.05
same,Signal Fold Change AT4G12410 auxin-responsive protein,2.89
same,Signal Fold Change AT4G12480 lipid transfer protein,0.17
same,"Signal Fold Change AT4G13210, unknown biological function",0.25
same,Signal Fold Change AT4G15550 UDP-glucose:indole-3-acetate beta-D-glucosyltransferase,0.28
same,"Signal Fold Change AT4G15920, unknown biological function",17.08
same,Signal Fold Change AT4G17220 expressed protein (cytoskeleton organization and biogenesis),2.35
same,Signal Fold Change AT4G18340 glycosyl hydrolase,2.70
same,Signal Fold Change AT4G23410 senescence-associated protein,2.34
same,"Signal Fold Change AT4G25780, unknown biological function",11.52
same,Signal Fold Change AT4G26010 peroxidase,0.38
same,"Signal Fold Change AT4G28085, unknown biological function",4.84
same,"Signal Fold Change AT4G31000, unknown biological function",0.61
same,"Signal Fold Change AT4G32920, unknown biological function",2.35
same,"Signal Fold Change AT4G34560, unknown biological function",1.85
same,Signal Fold Change AT4G34760 auxin-responsive protein,0.15
same,Signal Fold Change AT4G35060 copper chaperone,3.80
same,"Signal Fold Change AT4G35150, unknown biological function",0.28
same,"Signal Fold Change AT4G36520, unknown biological function",2.70
same,Signal Fold Change AT4G37220 stress-responsive protein,6.12
same,"Signal Fold Change AT4G38690, signal transduction, 1-phosphatidylinositol",3.04
same,Signal Fold Change AT4G39210 ADP-glucose pyrophosphorylase,0.28
same,Signal Fold Change AT4G39800 inositol-3-phosphate synthase isozyme 1,2.08
same,"Signal Fold Change AT4G39840, unknown biological function",0.29
same,"Signal Fold Change AT5G01210, unknown biological function",0.31
same,"Signal Fold Change AT5G01300, unknown biological function",1.40
same,"Signal Fold Change AT5G02260, cell wall organization and biogenesis, expansin (EXP9)",0.10
same,Signal Fold Change AT5G02540 short-chain dehydrogenase,0.12
same,Signal Fold Change AT5G03160 DNAJ heat shock N-terminal domain-containing protein,2.78
same,"Signal Fold Change AT5G04080, unknown biological function",2.55
same,"Signal Fold Change AT5G05180, unknown biological function",1.95
same,"Signal Fold Change AT5G06200, unknown biological function",2.10
same,"Signal Fold Change AT5G08240, unknown biological function",2.31
same,Signal Fold Change AT5G08260 serine carboxypeptidase S10 protein,0.38
same,Signal Fold Change AT5G08370 alpha-galactosidase,4.06
same,Signal Fold Change AT5G09980 expressed protein (defense response),0.38
same,Signal Fold Change AT5G10720 sensory transduction histidine kinase,0.32
same,"Signal Fold Change AT5G11540, unknown biological function",5.68
same,"Signal Fold Change AT5G12170, response to cadmium ion, expressed protein",0.34
same,Signal Fold Change AT5G13870 endo-xyloglucan transferase,0.11
same,Signal Fold Change AT5G13910 AP2/EREBP-like transcription factor,0.39
same,Signal Fold Change AT5G14780 formate dehydrogenase,0.35
same,Signal Fold Change AT5G14920 gibberellin-regulated protein,0.31
same,"Signal Fold Change AT5G15290, unknown biological function",2.42
same,Signal Fold Change AT5G15530 biotin carboxyl carrier protein 2,0.38
same,Signal Fold Change AT5G15830 bZIP transcription factor protein,4.18
same,"Signal Fold Change AT5G18470, unknown biological function",0.18
same,Signal Fold Change AT5G18670 beta-amylase,0.40
same,"Signal Fold Change AT5G18860, unknown biological function",2.08
same,"Signal Fold Change AT5G18970, unknown biological function",3.58
same,Signal Fold Change AT5G19890 peroxidase,0.08
same,"Signal Fold Change AT5G19930, unknown biological function",1.64
same,Signal Fold Change AT5G20410 monogalactosyldiacylglycerol synthase,3.75
same,"Signal Fold Change AT5G22310, unknown biological function",0.31
same,Signal Fold Change AT5G22860 serine carboxypeptidase S28 protein,3.54
same,"Signal Fold Change AT5G23750, unknown biological function",4.16
same,"Signal Fold Change AT5G24870, unknown biological function",2.17
same,Signal Fold Change AT5G25140 cytochrome P450,5.04
same,Signal Fold Change AT5G25160 zinc finger (C2H2 type) protein,3.03
same,Signal Fold Change AT5G25190 ethylene-responsive element-binding protein,0.40
same,"Signal Fold Change AT5G34940, unknown biological function",0.46
same,"Signal Fold Change AT5G37300, unknown biological function",3.03
same,"Signal Fold Change AT5G38930, unknown biological function",0.24
same,Signal Fold Change AT5G39860 bHLH protein,3.46
same,Signal Fold Change AT5G41900 hydrolase,3.08
same,"Signal Fold Change AT5G44410, unknown biological function",3.27
same,"Signal Fold Change AT5G44580, unknown biological function",0.21
same,Signal Fold Change AT5G46890 lipid transfer protein,3.94
same,"Signal Fold Change AT5G47240, unknown biological function",4.32
same,Signal Fold Change AT5G47330 palmitoyl protein thioesterase protein,3.02
same,Signal Fold Change AT5G47450 major intrinsic protein,2.71
same,"Signal Fold Change AT5G47950, unknown biological function",2.55
same,Signal Fold Change AT5G48490 lipid transfer protein,12.97
same,"Signal Fold Change AT5G48900, unknown biological function",0.48
same,"Signal Fold Change AT5G49900, unknown biological function",2.96
same,Signal Fold Change AT5G50720 ABA-responsive protein (HVA22e),2.65
same,Signal Fold Change AT5G52120 SKP1 interacting partner 3 protein,7.26
same,"Signal Fold Change AT5G53190, unknown biological function",6.92
same,"Signal Fold Change AT5G53830, unknown biological function",0.39
same,"Signal Fold Change AT5G56320, cell wall organization and biogenesis, expansin (EXP14)",2.90
same,"Signal Fold Change AT5G58660, unknown biological function",0.27
same,Signal Fold Change AT5G59540 oxidoreductase,0.40
same,Signal Fold Change AT5G63450 cytochrome P450,8.71
same,Signal Fold Change AT5G63650 serine/threonine protein kinase,0.33
same,Signal Fold Change AT5G65970 seven transmembrane MLO protein,2.88
same,"Signal Fold Change AT5G66310, microtubule-based movement, kinesin motor protein",0.45
same,Signal Fold Change AT5G66400 dehydrin (RAB18),0.81
same,"Signal Fold Change AT5G66440, unknown biological function",0.31
same,Signal Fold Change AT5G66460 (1-4)-beta-mannan endohydrolase,0.42
same,"Signal Fold Change AT5G66780, unknown biological function",0.86

# Reference: patent publication US8481459B2, “Chemical inhibitors of ethylene biosynthesis” (Academia Sinica, priority 2010, dated 2013)
